The source of these data is US20180064691A1, “Antibacterial compositions” (WOCKHARDT LIMITED, priority 2016, published 2018).

Test in all cases: quantitative drug diffusion assay (zone of inhibition, CLSI)
What all share (assay type): cell-based

The subject of one assay is E. coli S-112. Also on record: key: (R): Resistant; (I): Intermediate; (S): Sensitive (Interpretation as per CLSI recommendations, 2010). Particulars: CLSI recommendations, 2010. The source says: (§1) Antibacterial activity of cefepime combination with tazobactam against various bacterial strains, including those bacteria that are known to product one or more beta-lactamase, was investigated in quantitative drug diffusion assay performed as per CLSI recommendations (Clinical and Laboratory Standards Institute (CLSI), performance Standards for Antimicrobial Susceptibility Testing, 20th Informational Supplement, M 100-S20, Volume 30, No. 1, 2010).
(§2) In a typical study, overnight grown bacterial cultures after appropriate dilution were seed inoculated in the molten, cooled agar media and plates poured. Antibacterial agents containing 6 mm diameter discs were placed on the top of the agar surface. Zone of inhibition based observation was performed after 16 to 18 hours of incubation at 35±2° C. in ambient air. These assays are routinely used in determining possibility of treating a particular infection using given antibacterial agent or a composition. In general, zone inhibition values in the sensitive (S) range indicate that the strain is susceptible to that antibacterial agent or composition. It is generally assumed that the antibacterial agent or the combination under consideration would not be effective in treating the infection, if the zone inhibition values are in the resistant (R) range.

For another assay, the system named is E. coli B-89. Also on record: key: (R): Resistant; (I): Intermediate; (S): Sensitive (Interpretation as per CLSI recommendations, 2010). Particulars: CLSI recommendations, 2010.
From the text: as §1, §2

The next assay has as its system E. coli M50. Also on record: key: (R): Resistant; (I): Intermediate; (S): Sensitive (Interpretation as per CLSI recommendations, 2010). As to conditions: CLSI recommendations, 2010.
From the text: as §1, §2

For another assay, the system named is E. coli B-123. Also on record: key: (R): Resistant; (I): Intermediate; (S): Sensitive (Interpretation as per CLSI recommendations, 2010). Particulars: CLSI recommendations, 2010.
From the text: as §1, §2

The subject of another assay is E. coli 7MP. Also on record: key: (R): Resistant; (I): Intermediate; (S): Sensitive (Interpretation as per CLSI recommendations, 2010). As to conditions: CLSI recommendations, 2010.
From the text: as §1, §2

The next assay concerns E. coli M-138. Also on record: key to CLSI susceptibility interpretation: (R): Resistant; (I): Intermediate; (S): Sensitive (Interpretation as per CLSI recommendations, 2010).
From the text: as §1, §2

Turning to `CO/N=C(\C(=O)N[C@@H]1C(=O)N2C(C(=O)[O-])=C(C[N+]3(C)CCCC3)CS[C@H]12)c1csc(N)n1` [Cefepime, cefepime], the CLSI susceptibility interpretation result in the assay with E. coli S-112 is “(I)”; in the assay on E. coli B-89 it was “(R)”; with E. coli M50, “(R)”; in the assay with E. coli B-123 it was “(R)”; with E. coli 7MP, “(I)”; with E. coli M-138 (CLSI recommendations, 2010), “(R)”. Moreover, in the assay with E. coli M-138 (6 mm discs, 16 to 18 hours at 35±2° C.), the “Zone of Inhibition” value was “Nil”.
